We go through 29 compounds from patent publication US7872036B2, “3-triazolylphenyl sulfide derivative and insecticide, miticide and nematicide containing it as an active ingredient” (Kumiai Chemical Industry Co., Ltd., priority 2004, dated 2011).

In one experiment the test system is brown planthoppers. The experiment is described as follows: Insecticidal test on brown planthoppers. The settings on record: active ingredient 500 ppm, germinating rice immersed, 4th-instar larvae, 25° C., 6 days. In kind it is in vivo, Nilaparvata lugens. Here is the method:
Wettable powders were prepared in accordance with Formulation Example 2 and diluted with water to an active ingredient concentration of 500 ppm. Germinating rice was immersed in the resulting solutions and put in a plastic cup with a capacity of 60 ml. Ten 4th-instar larvae of brown planthoppers were released to the cup, and the cup was covered and placed in a thermostatic chamber at 25° C. for 6 days, and the survivors were counted for calculation of the insecticidal degree by using Equation 1. The test was carried out by one series system.

Experiment [1] deals with two-spotted spider mites. The experiment is described as follows: Miticidal test on two-spotted spider mites (by dipping). Type of experiment: in vivo, Tetranychus urticae. Also noted: scale not given here. Particulars: dipping of soybean seedlings, active ingredient 500 ppm, 25° C., 13 days. On the procedure: Wettable powders were prepared in accordance with Formulation Example 2 and diluted with water to an active ingredient concentration of 500 ppm. Soybean seedlings which had been inoculated with imago two-spotted spider mites were dipped in the resulting solutions and dried in air. The treated seedlings were placed in a thermostatic chamber at 25° C. for 13 days, and the mite survivors were counted for calculation of the miticidal value by using Equation 2. The test was carried out by one series system.

Experiment [2] relates to southern root-knot nematodes. The experiment is described as follows: Nemastatic test on southern root-knot nematodes. In kind it is in vivo, Meloidogyne sp. The settings on record: diluted solution 20 ppm mixed 1:1 with suspension of second stage larvae, 25° C., 5 days. On the procedure:
Compounds of the present invention (5 parts) and Tween 20 (tradename for polyoxyethylene sorbitan monolaurate) (1 part) as a spreader were dissolved n N,N-dimethylformamide (94 parts) to prepare 5% emulsifiable concentrates of the compounds of the present invention. Distilled water was added to the emulsifiable concentrates to prepare diluted solutions having a concentration of the compounds of the present invention of 20 ppm. 0.5 ml of the diluted solutions and 0.5 ml of water suspensions containing 100 second stage larvae of southern root-knot nematodes were mixed, and the mixture were placed in a thermostatic chamber at 25° C. for 5 days, and the survivors were counted for calculation of the nemastatic degree by using Equation 3. The test was carried out by two series system.

Experiment [3] deals with two-spotted spider mites. The experiment is described as follows: Miticidal test on two-spotted spider mites (by soil drenching). The settings on record: active ingredient 100 ppm, 5 ml per 100 g soil, 25° C., 13 days. Details: scale not given here. In kind it is in vivo, Tetranychus urticae. Here is the method: Wettable powders were prepared in accordance with Formulation Example 2 and diluted with water to an active ingredient concentration of 100 ppm. 100 g of the soil in cups with soybean seedlings which had been inoculated with imago two-spotted spider mites were drenched with 5 ml of the resulting solutions. The treated seedlings were placed in a […] chamber at 25° C. for 13 days, and the mite survivors were counted for calculation of the miticidal value by using Equation 2.

Turning to `Cc1cc(F)c(-n2nc(C(F)(F)F)nc2N(C)C(=O)C(F)(F)F)cc1[S+]([O-])CC(F)(F)F` (racemic) [Compound 212], the “Insecticidal degree (%)” value in the experiment on brown planthoppers is 100%. The Miticidal value in the experiment on two-spotted spider mites [1] and in the experiment with two-spotted spider mites [3] was 100 in each case. In addition, the “Nemastatic degree (%)” value in experiment [2] came out at 100%.
As for `Cc1cc(F)c(-n2nc(C(F)(F)F)nc2N)cc1SCC(F)(F)F` [Compound 1, [5-(5-amino-3-trifluoromethyl-1,2,4-triazolyl)-4-fluoro-2-methylphenyl]2,2,2-trifluoroethyl sulfide], the “Insecticidal degree (%)” value with brown planthoppers is reported as 90%. In addition, the Miticidal value is given as 100 in the experiment with two-spotted spider mites [1] and 99 in the experiment on two-spotted spider mites [3]. For the same compound, in experiment [2], the “Nemastatic degree (%)” value is listed as 100%.
The like results for `Cc1cc(F)c(-n2nc(C(F)(F)F)nc2N)cc1[S+]([O-])CC(F)(F)F` (stereo not drawn) [Compound 2, [5-(5-amino-3-trifluoromethyl-1,2,4-triazolyl)-4-fluoro-2-methylphenyl]2,2,2-trifluoroethyl sulfoxide] were, in that order, 100%, 100, 100 and 100%.
`Cc1cc(F)c(-n2nc(C(F)(F)F)nc2NC(=O)C(F)(F)F)cc1[S+]([O-])CC(F)(F)F` (stereo not drawn) [Compound 6, [5-(5-trifluoroacetylamino-3-trifluoromethyl-1,2,4-triazolyl)-4-fluoro-2-methylphenyl]2,2,2-trifluoroethyl sulfoxide]: the “Insecticidal degree (%)” value with brown planthoppers is listed as 100%. Moreover, the Miticidal value in the experiment with two-spotted spider mites [1] and in the experiment with two-spotted spider mites [3] was 100 in each case. Also, the “Nemastatic degree (%)” value in experiment [2] is 100%.
Take `Cc1cc(F)c(-n2nc([S+]([O-])C(F)F)nc2N)cc1[S+]([O-])CC(F)(F)F` (stereo not drawn) [Compound 30]: the Miticidal value in the experiment on two-spotted spider mites [1] and in the experiment on two-spotted spider mites [3] was 100 in each case. Besides, the “Nemastatic degree (%)” value in experiment [2] was 95%.
Regarding `Cc1cc(F)c(-n2nc(C#N)nc2N)cc1SCC(F)(F)F` [Compound 35], the Miticidal value was 100 in the experiment with two-spotted spider mites [1] and 93 with two-spotted spider mites [3]. In addition, in experiment [2], the “Nemastatic degree (%)” value is 100%.
Regarding `Cc1cc(F)c(-n2nc(C#N)nc2N)cc1[S+]([O-])CC(F)(F)F` (stereo not drawn) [Compound 36], the Miticidal value in the experiment on two-spotted spider mites [1] and in the experiment on two-spotted spider mites [3] was 100 each time. For the same compound, the “Nemastatic degree (%)” value in experiment [2] came to 100%.
As to `CNc1nc(C(F)(F)F)nn1-c1ccc(C)c([S+]([O-])CC(F)(F)F)c1` (stereo not drawn) [Compound 38], the “Insecticidal degree (%)” value in the experiment with brown planthoppers is 100%. Also, the Miticidal value with two-spotted spider mites [1] and with two-spotted spider mites [3] was 100 throughout. In experiment [2], the “Nemastatic degree (%)” value is recorded as 100%.
Regarding `Cc1cc(F)c(-n2nc(C(F)(F)F)nc2N(C)C)cc1SCC(F)(F)F` [Compound 43], in the experiment with brown planthoppers, the “Insecticidal degree (%)” value was found to be 100%. Moreover, the Miticidal value with two-spotted spider mites [1] and in the experiment with two-spotted spider mites [3] was 100 throughout. The “Nemastatic degree (%)” value in experiment [2] was determined as 93%.
With `CCc1nc(N)n(-c2cc([S+]([O-])CC(F)(F)F)c(C)cc2F)n1` (stereo not drawn) [Compound 50], in the experiment on brown planthoppers, the “Insecticidal degree (%)” value turned out to be 99%. Moreover, the Miticidal value with two-spotted spider mites [1] and in the experiment with two-spotted spider mites [3] was 100 throughout. In experiment [2], the “Nemastatic degree (%)” value stood at 98%.
`C#CCNc1nc(C(F)(F)F)nn1-c1cc([S+]([O-])CC(F)(F)F)c(C)cc1F` (stereo not drawn) [Compound 66]: the “Insecticidal degree (%)” value with brown planthoppers is on record as 100%. In addition, the Miticidal value in the experiment with two-spotted spider mites [1] and with two-spotted spider mites [3] was 100 each time. For the same compound, in experiment [2], the “Nemastatic degree (%)” value is given as 94%.
In the case of `CNc1nc(SC(F)(F)C(F)(F)F)nn1-c1cc([S+]([O-])CC(F)(F)F)c(C)cc1F` (stereo not drawn) [Compound 102], the “Insecticidal degree (%)” value in the experiment on brown planthoppers is 100%. Further, the Miticidal value with two-spotted spider mites [1] and in the experiment on two-spotted spider mites [3] was 100 in each case. The “Nemastatic degree (%)” value in experiment [2] was determined as 98%.
As for `CNc1nc(C(C)(C)C)nn1-c1cc(SCC(F)(F)F)c(C)cc1F` [Compound 114], in the experiment on brown planthoppers, the “Insecticidal degree (%)” value worked out at 100%. In addition, the Miticidal value with two-spotted spider mites [1] and with two-spotted spider mites [3] was 100 each time. In addition, the “Nemastatic degree (%)” value in experiment [2] is listed as 100%.
With `CNc1nc(C(C)(C)C)nn1-c1cc([S+]([O-])CC(F)(F)F)c(C)cc1F` (stereo not drawn) [Compound 115], in the experiment on brown planthoppers, the “Insecticidal degree (%)” value was 100%. Besides, the Miticidal value in the experiment on two-spotted spider mites [1] and in the experiment with two-spotted spider mites [3] was 100 in each case. In experiment [2], the “Nemastatic degree (%)” value came to 92%.
As for `CCc1nc(N)n(-c2cc([S+]([O-])CC(F)(F)F)c(C)cc2F)n1` (stereo not drawn) [Compound 117], in the experiment with brown planthoppers, the “Insecticidal degree (%)” value amounted to 100%. For the same compound, the Miticidal value in the experiment with two-spotted spider mites [1] and with two-spotted spider mites [3] was 100 in each case.
As for `CCC(C)(C)c1nc(N)n(-c2cc([S+]([O-])CC(F)(F)F)c(C)cc2F)n1` (stereo not drawn) [Compound 119], the “Insecticidal degree (%)” value in the experiment with brown planthoppers was found to be 90%. Moreover, the Miticidal value in the experiment on two-spotted spider mites [1] and with two-spotted spider mites [3] was 100 throughout.
With `Nc1nc(C(F)(F)F)nn1-c1ccc(C(F)F)c([S+]([O-])CC(F)(F)F)c1` (stereo not drawn) [Compound 123], the Miticidal value with two-spotted spider mites [1] and in the experiment with two-spotted spider mites [3] was 100 throughout. Moreover, the “Nemastatic degree (%)” value in experiment [2] is listed as 98%.
Regarding `Cc1ccc(-n2nc(C(F)(F)F)nc2N)cc1[S+]([O-])CC(F)(F)F` (stereo not drawn) [Compound 125], the “Insecticidal degree (%)” value in the experiment on brown planthoppers is recorded as 100%. The Miticidal value with two-spotted spider mites [1] is given as 100; in the experiment with two-spotted spider mites [3] it was 99. Besides, the “Nemastatic degree (%)” value in experiment [2] turned out to be 91%.
For the compound `Nc1nc(C(F)(F)F)nn1-c1ccc(Cl)c([S+]([O-])CC(F)(F)F)c1` (stereo not drawn) [Compound 127], in the experiment on brown planthoppers, the “Insecticidal degree (%)” value is reported as 100%. Besides, the Miticidal value with two-spotted spider mites [1] and with two-spotted spider mites [3] was 100 throughout. Further, the “Nemastatic degree (%)” value in experiment [2] is 94%.
Consider `Cc1cc(F)c(-n2nc(SCC(F)(F)F)nc2N)cc1[S+]([O-])CC(F)(F)F` (stereo not drawn) [Compound 131], for which the “Insecticidal degree (%)” value in the experiment with brown planthoppers amounted to 90%. Besides, the Miticidal value in the experiment on two-spotted spider mites [1] and in the experiment with two-spotted spider mites [3] was 100 in each case. Besides, in experiment [2], the “Nemastatic degree (%)” value was 93%.
For the compound `Cc1cc(F)c(-n2nc([S+]([O-])CC(F)(F)F)nc2N)cc1[S+]([O-])CC(F)(F)F` (stereo not drawn) [Compound 133], in the experiment with brown planthoppers, the “Insecticidal degree (%)” value was 100%. The Miticidal value in the experiment with two-spotted spider mites [1] and in the experiment on two-spotted spider mites [3] was 100 each time. Besides, the “Nemastatic degree (%)” value in experiment [2] came out at 98%.
As for `Cc1cc(F)c(-n2nc(C(C)(C)C)nc2N)cc1SCC(F)(F)F` [Compound 144], the “Insecticidal degree (%)” value with brown planthoppers is recorded as 90%. The Miticidal value with two-spotted spider mites [1] and with two-spotted spider mites [3] was 100 in each case. Besides, in experiment [2], the “Nemastatic degree (%)” value is 97%.
In the case of `Cc1ccc(-n2nc(C(F)(F)F)nc2NC(=O)C(F)(F)F)cc1[S+]([O-])CC(F)(F)F` (stereo not drawn) [Compound 153], the “Insecticidal degree (%)” value in the experiment with brown planthoppers amounted to 100%. Besides, the Miticidal value with two-spotted spider mites [1] and in the experiment on two-spotted spider mites [3] was 100 throughout.
Turning to `CC(=O)Nc1nc(SCC(F)(F)F)nn1-c1cc([S+]([O-])CC(F)(F)F)c(C)cc1F` (stereo not drawn) [Compound 155], the “Insecticidal degree (%)” value in the experiment on brown planthoppers was determined as 90%. For the same compound, the Miticidal value in the experiment with two-spotted spider mites [1] and in the experiment with two-spotted spider mites [3] was 100 throughout.
For the compound `CC(=O)Nc1nc([S+]([O-])CC(F)(F)F)nn1-c1cc([S+]([O-])CC(F)(F)F)c(C)cc1F` (stereo not drawn) [Compound 157], the “Insecticidal degree (%)” value with brown planthoppers was found to be 100%. Further, the Miticidal value with two-spotted spider mites [1] and with two-spotted spider mites [3] was 100 each time.
For the compound `CNc1nc(SCC(F)(F)F)nn1-c1cc([S+]([O-])CC(F)(F)F)c(C)cc1F` (stereo not drawn) [Compound 161], in the experiment with brown planthoppers, the “Insecticidal degree (%)” value is 100%. The Miticidal value with two-spotted spider mites [1] and in the experiment on two-spotted spider mites [3] was 100 each time. In addition, in experiment [2], the “Nemastatic degree (%)” value is 98%.
As for `Cc1cc(F)c(-n2nc(C(F)(F)F)nc2NN)cc1SCC(F)(F)F` [Compound 162], in the experiment on brown planthoppers, the “Insecticidal degree (%)” value stood at 100%. Moreover, the Miticidal value in the experiment on two-spotted spider mites [1] turned out to be 100; in the experiment on two-spotted spider mites [3], 95. Moreover, the “Nemastatic degree (%)” value in experiment [2] amounted to 100%.
Consider `Cc1cc(F)c(-n2nc(C(F)(F)F)nc2NC(C)C)cc1[S+]([O-])CC(F)(F)F` (stereo not drawn) [Compound 167], for which the “Insecticidal degree (%)” value with brown planthoppers is reported as 100%. The Miticidal value in the experiment on two-spotted spider mites [1] and in the experiment on two-spotted spider mites [3] was 100 throughout.
Take `CNC(=O)Nc1nc(C(F)(F)F)nn1-c1cc([S+]([O-])CC(F)(F)F)c(C)cc1F` (stereo not drawn) [Compound 169]: the “Insecticidal degree (%)” value with brown planthoppers is on record as 100%. In addition, the Miticidal value with two-spotted spider mites [1] and with two-spotted spider mites [3] was 100 in each case.
